Measured values reported in patent US9512425B2, “Inhibiting migration of cancer cells” (Cornell University, priority 2012, dated 2016).

Experiments:
MDA cells = assay: Wound healing / transwell migration with BAPTA-AM, MDA cells; assay type: cell-based, human; settings: 20 μM BAPTA-AM
Description: (§1) Cells were plated in triplicate into 6-well plates (5×10^5 cell/well) and cultured in DMEM containing 10% FBS. A scratch wounded was generated using sterile plastic 200 μl pipette tip, and floating debris removed by washing with PBS. Cell migration was photographed and measured under phase-contrast microscopy. To measure cell migration after depletion of intracellular calcium, a scratch was made and the wound healing was monitored for 48 hr in the presence of 20 μM of BAPTA-AM (Invitrogen). The percentage of wound healed area was measured as a ratio of occupied area to the total area using Image J program (NIH).

MDA-MB-436 cells = assay: Wound healing migration with BAPTA-AM, MDA-MB-436 cells; assay type: cell-based, human; settings: MDA-MB-436 cells expressing miR-708, BAPTA-AM 20 μM, 48 hours
Description: as §1

**Q.** For `CC(=O)OCOC(=O)CN(CC(=O)OCOC(C)=O)c1ccccc1OCCOc1ccccc1N(CC(=O)OCOC(C)=O)CC(=O)OCOC(C)=O` [BAPTA-AM], which cell migration (MDA cells; MDA control cells) is on record?
**A.** dramatic impairment

**Q.** And the cell migration (MDA cells; MDA-miR708 cells)?
**A.** remained less affected

**Q.** And the cell migration (MDA-MB-436 cells)?
**A.** rescued the migration defects
